Results from patent US8518958B2, “Pyrido [2,3-D] pyrimidines and their use as kinase inhibitors” (Forma Therapeutics, Inc., priority 2006, dated 2013).

Tests used:
[1] = test system: HT-29 tumor cells; assay: Anti-proliferative activity, SRB assay; format: cell-based, human; details: Homo sapiens, HT-29, 72 h, 72 hours exposure, read-out: CELLULAR IC50 HT-29
Outline: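 Cells at 3,000-15,000/well, plated 24 h before compound, exposed to a concentration range for 72 hours. Proliferation measured by SRB staining after cold TCA fixation, absorbance at OD570; IC50 estimated from % inhibition versus DMSO-treated cells.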

[2] = target: B-Raf delta1-415 (Homo sapiens, UniProt P15056); assay: B-Raf kinase inhibition (MAPH filter plate, 33P-ATP, MEK1 substrate); details: read-out: Biochemical IC50 B-Raf
Outline: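 Radiometric filter-binding assay with B-Raf delta1-415 at a level giving 50% turnover, MEK1 substrate and 33P-ATP (12.5 μCi/ml) in 20 mM Mops pH 7.0 with Mg/Mn, 1 h at room temperature. Inhibitor dilution series from 10 μM; EDTA-stopped reactions captured on phosphocellulose filters, counted by scintillation for IC50.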

Sequence of B-Raf delta1-415 (P15056 416-766): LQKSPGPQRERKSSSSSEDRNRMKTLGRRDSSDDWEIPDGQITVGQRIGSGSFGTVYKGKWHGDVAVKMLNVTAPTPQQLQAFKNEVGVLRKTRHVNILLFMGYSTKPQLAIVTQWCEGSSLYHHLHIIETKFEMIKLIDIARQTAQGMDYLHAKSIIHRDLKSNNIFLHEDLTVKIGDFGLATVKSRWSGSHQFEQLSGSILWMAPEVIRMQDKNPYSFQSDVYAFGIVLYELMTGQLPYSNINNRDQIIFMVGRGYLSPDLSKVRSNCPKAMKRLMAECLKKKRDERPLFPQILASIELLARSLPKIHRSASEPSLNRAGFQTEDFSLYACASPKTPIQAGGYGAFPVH

| Compound | IC50 [1] | IC50 [2] |
| --- | --- | --- |
| COn1c(=O)c(-c2c(Cl)cccc2Cl)cc2cnc(Nc3ccc(Cc4n[nH]c(C)n4)cc3)nc21 [Compound 151, 6-(2,6-Dichlorophenyl)-8-methoxy-2-(4-(5-methyl-1,2,4-triazol-3-yl)methylphenyl)-amino-pyrido[2,3-d]pyrimidin-7-one] | < 1000 nM | < 500 nM |
| O=c1c(-c2c(F)cccc2Cl)cc2cnc(Nc3ccc(N4CCOCC4)cc3)nc2n1OC[C@H](O)CO [Compound 152] | < 1000 nM | < 100 nM |
| O=c1c(-c2c(F)cccc2Cl)cc2cnc(Nc3ccccc3)nc2n1OCc1cccnc1 [Compound 153, 6-(2-Chloro-6-fluorophenyl)-2-phenylamino-8-(pyrid-3-ylmethyl)oxy-pyrido[2,3-d]pyrimidin-7-one] | < 1000 nM | < 500 nM |
| O=c1c(-c2c(F)cccc2Cl)cc2cnc(Nc3ccc(N4CCOCC4)cc3)nc2n1OC[C@H]1CCNC1 [Compound 155] | < 1000 nM | < 100 nM |
| COn1c(=O)c(-c2c(Cl)cccc2Cl)cc2cnc(Nc3cc(C(=O)N(C)CCOC(=O)c4cccnc4)n(C)c3)nc21 [Compound 159] | < 1000 nM | < 500 nM |
| COn1c(=O)c(-c2c(Cl)cccc2Cl)cc2cnc(Nc3ccc(S(=O)(=O)CCCO)cc3)nc21 [Compound 160, 6-(2,6-Dichlorophenyl)-2-(4-(3-hydroxypropyl)sulfonylphenyl)-amino-8-methoxy-pyrido[2,3-d]pyrimidin-7-one] | < 1000 nM | < 100 nM |
| COn1c(=O)c(-c2c(Cl)cccc2Cl)cc2cnc(Nc3cccc(S(C)(=N)=O)c3)nc21 (stereo not drawn) [Compound 161, 6-(2,6-Dichlorophenyl)-8-methoxy-2-(3-methyliminosulfonylphenyl)-amino-pyrido[2,3-d]pyrimidin-7-one] | < 1000 nM | < 100 nM |

The remaining lines, values ahead:

| IC50 [1] | IC50 [2] | Compound |
| --- | --- | --- |
| < 10000 nM | < 500 nM | COn1c(=O)c(-c2c(Cl)cccc2Cl)cc2cnc(NCc3ccncc3)nc21 [Compound 147, 6-(2,6-Dichlorophenyl)-8-methoxy-2-pyrid-4-ylmethylamino-pyrido[2,3-d]pyrimidin-7-one] |
| < 1000 nM | < 100 nM | O=c1c(-c2c(F)cccc2Cl)cc2cnc(Nc3ccc(N4CCOCC4)cc3)nc2n1OC[C@@H](O)CO [Compound 148] |
| < 1000 nM | < 100 nM | O=c1c(-c2c(F)cccc2Cl)cc2cnc(Nc3ccc(N4CCOCC4)cc3)nc2n1OC[C@@H]1CCNC1 [Compound 149] |
| < 10000 nM | > 1000 nM | COn1c(=O)c(-c2c(Cl)cccc2Cl)cc2cnc(Nc3ccc(C)cc3)nc21 [Compound 150, 6-(2,6-Dichlorophenyl)-2-(4-methylphenyl)-amino-8-methoxy-pyrido[2,3-d]pyrimidin-7-one] |
| < 1000 nM | < 500 nM | COCCN(C)C(=O)c1cc(Nc2ncc3cc(-c4c(Cl)cccc4Cl)c(=O)n(OC)c3n2)cn1C [Compound 154, 6-(2,6-Dichlorophenyl)-8-methoxy-2-(5-N-(2-methoxyethyl)-N-methyl-aminocarbonyl-1-methyl-pyrrol-3-yl)-amino-pyrido[2,3-d]pyrimidin-7-one] |
| < 1000 nM | < 500 nM | COn1c(=O)c(-c2c(Cl)cccc2Cl)cc2cnc(Nc3cccc(CS(=O)(=O)NCCO)c3)nc21 [Compound 156, 6-(2,6-Dichlorophenyl)-2-(3-((2-hydroxyethylamino)sulfonylmethyl)phenyl)-amino-8-methoxy-pyrido[2,3-d]pyrimidin-7-one] |
| < 1000 nM | < 100 nM | COn1c(=O)c(-c2c(Cl)cccc2Cl)cc2cnc(Nc3cccc(S(C)(=O)=O)c3)nc21 [Compound 157, 6-(2,6-Dichlorophenyl)-8-methoxy-2-(3-methylsulfonylphenyl)-amino-pyrido[2,3-d]pyrimidin-7-one] |
| < 1000 nM | < 500 nM | COn1c(=O)c(-c2c(Cl)cccc2Cl)cc2cnc(Nc3ccc(SCCCO)cc3)nc21 [Compound 158, 6-(2,6-Dichlorophenyl)-2-(4-(3-hydroxypropyl)thiophenyl)-amino-8-methoxy-pyrido[2,3-d]pyrimidin-7-one] |
